Values of other authors as cited in patent US20050215521A1, “Modafinil combination therapy for improving sleep quality” (priority 2003, published 2005).
Where a name gives a salt, the structure may show the parent alone.

Assays:
[1] = oral
mice = settings: reference agents, scores below 40 of 60 denote behavioral depression
GABA uptake system = settings: at concentrations of 5×10^4 M
[2] = molecular target: GABA:2-oxo-glutarate aminotransferase (Homo sapiens, UniProt P80404); settings: at concentrations of 10^−3 M
[3] = tested on: L-glutamate 1-carboxylase; settings: at concentrations of 10^−3 M
[4] = in vivo

GABA:2-oxo-glutarate aminotransferase, sequence (P80404 29-500): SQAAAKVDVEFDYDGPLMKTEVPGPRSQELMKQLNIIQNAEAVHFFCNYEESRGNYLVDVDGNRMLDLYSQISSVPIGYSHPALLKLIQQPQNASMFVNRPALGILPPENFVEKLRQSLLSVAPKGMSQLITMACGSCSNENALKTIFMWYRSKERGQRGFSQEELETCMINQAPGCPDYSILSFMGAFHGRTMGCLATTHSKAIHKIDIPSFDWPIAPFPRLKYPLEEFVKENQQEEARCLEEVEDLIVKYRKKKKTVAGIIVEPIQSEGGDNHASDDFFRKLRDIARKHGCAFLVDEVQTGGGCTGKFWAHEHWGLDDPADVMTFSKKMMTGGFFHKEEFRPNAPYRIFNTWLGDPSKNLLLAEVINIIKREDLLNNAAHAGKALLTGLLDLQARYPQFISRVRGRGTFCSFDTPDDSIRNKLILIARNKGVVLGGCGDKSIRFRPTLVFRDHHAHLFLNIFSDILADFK

With `Cc1ccc(-c2nc3ccc(C)cn3c2CC(=O)N(C)C)cc1` [zolpidem, N,N,6-trimethyl-2-(4-methylphenyl)-imidazo[1,2-s]pyridine-3-acetamide] as the compound, how does the “elimination half-life (mean)” value [1] read?
The value was 2.4 h.

What about the duration of action ([1]; hypnotic action) of the same compound?
Its duration of action is “up to 6 hours”.

With `CCC1(c2ccccc2)CCC(=O)NC1=O` (stereo not shown) [glutethimide] as the compound, how does the ED100 (mice) read?
The ED100 was 300 mg/kg.

For `CP(=O)(O)CCCN` [SKF 97541, 3-aminopropyl(methyl)phosphinic acid], which “solubility in dilute aqueous base” value (dilute aqueous base) is on record?
Its value is “readily soluble”.

What about the solubility in water of the same compound?
Its solubility in water is “readily soluble”.

Which ED100 (mice) does the source give for `CN1C(=O)CN=C(c2ccccc2)c2cc(Cl)ccc21` [diazepam, 7-chloro-1,3-dihydro-1-methyl-5-phenyl-2H-1,4-benzodiazepin-2-one] here?
Its ED100 is 50 mg/kg.

For `CCCC(C)C1(CC)C(=O)NC(=O)NC1=O` (stereo not shown) [pentobarbital], which ED100 (mice) is on record?
Its ED100 is 100 mg/kg.

For `Oc1noc2c1CCNC2` [gaboxadol, 4,5,6,7-tetrahydroisoxazolo[5,4-c]pyridin-3-ol], which “interaction with the GABA uptake system” value (GABA uptake system) is on record?
Its value is “did not interact”.

What about the “interaction with GABA:2-oxo-glutarate aminotransferase” value [2] of the same compound?
Its value is “did not interact”.

What about the “interaction with L-glutamate 1-carboxylase” value [3] of the same compound?
The value was “did not interact”.

For `Cc1ccc(-c2nc3ccc(C)cn3c2CC(=O)N(C)C)cc1` [zolpidem tartrate], which solubility in methanol is on record?
Its solubility in methanol is “sparingly soluble”.

What about the “solubility in methylene chloride” value (methylene chloride) of the same compound?
Its value is “practically insoluble”.

And the solubility in water?
The solubility in water was “slightly soluble”.

What does the source list for `NC(=O)C[S+]([O-])C(c1ccccc1)c1ccccc1` (stereo not shown) [Modafinil, 2-[(Diphenylmethyl)sulfinyl]-N-acetamide]?
solubility in acetone (acetone): sparingly or slightly soluble; solubility in cyclohexane (cyclohexane): insoluble; solubility in methanol: sparingly or slightly soluble; solubility in water: insoluble

With `COC(=O)[C@H]1[C@H]2C[C@@H]3c4[nH]c5cc(OC)ccc5c4CCN3C[C@H]2C[C@@H](OC(=O)c2cc(OC)c(OC)c(OC)c2)[C@@H]1OC` [reserpine] as the compound, how does the ED100 (mice) read?
Its ED100 is 50 mg/kg.

With `O=C(CCCN1CCC(O)(c2ccc(Cl)cc2)CC1)c1ccc(F)cc1` [haloperidol] as the compound, how does the ED100 (mice) read?
The ED100 was 10 mg/kg.

Which ED100 (mice) does the source give for `CCCC(C)(COC(N)=O)COC(N)=O` [meprobamate] here?
The ED100 was 300 mg/kg.

Which “absorption from the stomach” value [4] does the source give for zopiclone here?
Its value is “well absorbed”.

What about the “binding to plasma proteins” value (plasma proteins) of the same compound?
Its value is “not highly bound”.
